These are literature values, as cited in patent publication EP1997479A1, “Stabilized amorphous candesartan cilexetil compositions for oral administration” (Helm AG, priority 2007, dated 2008).

Turning to `CCOc1nc2cccc(C(=O)OC(C)OC(=O)OC3CCCCC3)c2n1Cc1ccc(-c2ccccc2-c2nnn[nH]2)cc1` (racemic) [Candesartan cilexetil, (±)-1-(Cyclohexyloxycarbonyloxy)ethyl 2-ethoxy-1-[[2'-(1H-tetrazol-5-yl)biphenyl-4-yl]methyl]-1 H-benzimidazole-7-carboxylate], the solubility in water result is recorded as “low solubility in water”.
